The values below are quoted from earlier work in paper PMC6024518 (International Journal of Immunopathology and Pharmacology, 2018).

This data set concerns SYK, JAK1, JAK2, JAK3 and other kinases. The settings on record: including JAK2.

With `COc1cc(Nc2ncc(F)c(Nc3ccc4c(n3)NC(=O)C(C)(C)O4)n2)cc(OC)c1OC` [R406], the “number of kinases inhibited more potently than SYK” value is 24.
